What was measured:
[1] = test system: HepG2-cells (hepatocytes); assay: Selective enrichment of fluorescence-marked conjugate in HepG2-cells, fluorescence microscopy; type: cell-based; conditions: 50 uM, 37° C., 10 min., washed, treated with 5% beef-serum albumin
Description: In order to control the selective enrichment of the LysoPE-DOCA-compound HepG2-cells (hepatocytes) were incubated at 37° C. with a fluorescence-marked ursodeoxycholate-1-palmitoyl, 2-NBD-PE-conjugate (at 50 uM) for 10 min., washed, and subsequently treated with 5% beef-serum albumin in order to remove the conjugate from the exterior plasma membrane of the cells. Subsequently the cells are microscopic controlled in phase contrast and in fluorescent light.

colon mucosa = conditions: topic application, rat models, colitis induced by acetic acid and trinitro-benzosulfonic acid; cited from earlier work
colitis ulcerosa = conditions: cited from earlier work
[2] = oral, retarding packaged form, compared to placebo control group

Row | Substance | enrichment in the cells under fluorescent-microscopic observation [1] | protection of colon mucosa from induced colitis (colon mucosa) | inflammatory activity of colitis ulcerosa (colitis ulcerosa; oral, retarding packaged form with release in the lower small intestine and the colon) | improvement of the clinical activity on average (colitis ulcerosa; [2]) [%] | patients treated in whom the improvement of clinical activity was achieved (colitis ulcerosa; [2]) [%] | patients reaching clinical remission (colitis ulcerosa; within three months)
1 | ursodeoxycholate-1-palmitoyl, 2-NBD-PE-conjugate | intense yellow-green coloration in the cytoplasm but not in the core of the cell | – | – | – | – | –
2 | phosphatidyl choline | – | protecting colon mucosa from colitis | significantly suppresses the inflammatory activity | 70 | 90 | more than half of the patients reached even clinical remission

Source: patent US8883426B2, “Use of therapeutically effective lipids and method for producing organ-/tissue-specific therapeutically effective lipids” (PAT GmbH, priority 2005, dated 2014)
